Test results from PubChem BioAssay AID1745844 (Carcinogenic Potency Database (CPDB), 2022).
“And” between values parts separate entries of the source, which are not always exact repeats. Equal values may be shown once. The source made the active and inactive calls. How the calls were made is not given here.

System: rodent lifetime carcinogenesis bioassay, tumor incidence TD50
Test: chronic cancer bioassays in animals – CPDB, compiled studies (AID 1745844)

## Cc1ccccc1N
mouse, strain B6C3F1, females, in feed, site: any site (literature study), lesion: several types, types named in the paper, dosed 102 weeks, study length 102 weeks
  TD50: 1350 mg/kg/day
mouse, strain B6C3F1, females, in feed, site: liver, lesion: hepatocellular adenoma + hepatocellular carcinoma + neoplastic nodule, dosed 102 weeks, study length 102 weeks
  TD50: 754 mg/kg/day
mouse, strain B6C3F1, females, in feed, site: liver, lesion: hepatocellular adenoma + hepatocellular carcinoma, dosed 102 weeks, study length 102 weeks
  TD50: 754 mg/kg/day
mouse, strain B6C3F1, females, in feed, site: liver, lesion: hepatocellular carcinoma, dosed 102 weeks, study length 102 weeks
  TD50: 1520 mg/kg/day
mouse, strain B6C3F1, males, in feed, site: all sites, lesion: hemangioma + hemangiosarcoma, dosed 102 weeks, study length 102 weeks
  TD50: 926 mg/kg/day
mouse, strain B6C3F1, males, in feed, site: all sites, lesion: hemangiosarcoma, dosed 102 weeks, study length 102 weeks
  TD50: 1220 mg/kg/day
mouse, strain B6C3F1, males, in feed, site: liver, lesion: hepatocellular adenoma + hepatocellular carcinoma + neoplastic nodule, dosed 102 weeks, study length 102 weeks
  TD50: 12700 mg/kg/day
mouse, strain CD-1 HaM/ICR, females, in feed, site: all sites, lesion: all vascular tumors, dosed 68 weeks, study length 90 weeks
  TD50: 1240 mg/kg/day
mouse, strain CD-1 HaM/ICR, females, in feed, site: any site (literature study), lesion: several types, types named in the paper, dosed 68 weeks, study length 90 weeks
  TD50: 699 mg/kg/day
mouse, strain CD-1 HaM/ICR, females, in feed, site: liver, lesion: several types, types named in the paper, dosed 68 weeks, study length 90 weeks
  TD50: 1650 mg/kg/day (inactive)
mouse, strain CD-1 HaM/ICR, females, in feed, site: lung, lesion: several types, types named in the paper, dosed 68 weeks, study length 90 weeks
  carcinogen call: negative (inactive)
mouse, strain CD-1 HaM/ICR, males, in feed, site: all sites, lesion: all vascular tumors, dosed 68 weeks, study length 90 weeks
  TD50: 646 mg/kg/day and 660 mg/kg/day
mouse, strain CD-1 HaM/ICR, males, in feed, site: any site (literature study), lesion: several types, types named in the paper, dosed 68 weeks, study length 90 weeks
  TD50: 325 mg/kg/day
mouse, strain CD-1 HaM/ICR, males, in feed, site: liver, lesion: several types, types named in the paper, dosed 68 weeks, study length 90 weeks
  TD50: 1400 mg/kg/day (inactive)
mouse, strain CD-1 HaM/ICR, males, in feed, site: lung, lesion: several types, types named in the paper, dosed 68 weeks, study length 90 weeks
  TD50: 1160 mg/kg/day (inactive)
rat, strain Charles River CD (Sprague-Dawley), males, in feed, site: any site (literature study), lesion: several types, types named in the paper, dosed 64 weeks, study length 68 weeks
  TD50: 36.1 mg/kg/day
rat, strain Charles River CD (Sprague-Dawley), males, in feed, site: liver, lesion: several types, types named in the paper, dosed 64 weeks, study length 68 weeks
  TD50: 2960 mg/kg/day (inactive)
rat, strain Charles River CD (Sprague-Dawley), males, in feed, site: subcutaneous tissue, lesion: several types, types named in the paper, dosed 64 weeks, study length 68 weeks
  TD50: 36.7 mg/kg/day and 38.8 mg/kg/day
rat, strain Charles River CD (Sprague-Dawley), males, in feed, site: urinary bladder, lesion: several types, types named in the paper, dosed 64 weeks, study length 68 weeks
  TD50: 131 mg/kg/day
rat, strain Fischer 344, females, in feed, site: any site (literature study), lesion: several types, types named in the paper, dosed 104 weeks, study length 104 weeks
  TD50: 75.8 mg/kg/day
rat, strain Fischer 344, females, in feed, site: mammary gland + multiple organs + spleen + urinary bladder, lesion: adenoma, NOS + fibroadenoma + angiosarcoma + fibrosarcoma + osteosarcoma + sarcoma, NOS + transitional-cell carcinoma + transitional-c, dosed 104 weeks, study length 104 weeks
  TD50: 77.9 mg/kg/day
rat, strain Fischer 344, females, in feed, site: mammary gland, lesion: adenoma, NOS + fibroadenoma, dosed 104 weeks, study length 104 weeks
  TD50: 119 mg/kg/day
rat, strain Fischer 344, females, in feed, site: mammary gland, lesion: fibroadenoma, dosed 104 weeks, study length 104 weeks
  TD50: 115 mg/kg/day
rat, strain Fischer 344, females, in feed, site: multiple organs, lesion: angiosarcoma + fibrosarcoma + osteosarcoma + sarcoma, NOS, dosed 104 weeks, study length 104 weeks
  TD50: 332 mg/kg/day
rat, strain Fischer 344, females, in feed, site: multiple organs, lesion: osteosarcoma, dosed 104 weeks, study length 104 weeks
  TD50: 423 mg/kg/day
rat, strain Fischer 344, females, in feed, site: spleen, lesion: angiosarcoma + osteosarcoma + sarcoma, NOS, dosed 104 weeks, study length 104 weeks
  TD50: 337 mg/kg/day
rat, strain Fischer 344, females, in feed, site: spleen, lesion: angiosarcoma, dosed 104 weeks, study length 104 weeks
  TD50: 450 mg/kg/day
rat, strain Fischer 344, females, in feed, site: urinary bladder, lesion: transitional-cell carcinoma + transitional-cell papilloma, dosed 104 weeks, study length 104 weeks
  TD50: 175 mg/kg/day
rat, strain Fischer 344, females, in feed, site: urinary bladder, lesion: transitional-cell carcinoma, dosed 104 weeks, study length 104 weeks
  TD50: 185 mg/kg/day
rat, strain Fischer 344, males, in feed, site: any site (literature study), lesion: several types, types named in the paper, dosed 102 weeks, study length 104 weeks
  TD50: 24.4 mg/kg/day
rat, strain Fischer 344, males, in feed, site: liver, lesion: hepatocellular adenoma + hepatocellular carcinoma + neoplastic nodule, dosed 102 weeks, study length 104 weeks
  TD50: 645 mg/kg/day
rat, strain Fischer 344, males, in feed, site: liver, lesion: several types, types named in the paper, dosed 72 weeks, study length 93 weeks
  TD50: 1000 mg/kg/day
rat, strain Fischer 344, males, in feed, site: mammary tissue, wider than the gland, lesion: fibroadenoma, dosed 72 weeks, study length 93 weeks
  TD50: 149 mg/kg/day
rat, strain Fischer 344, males, in feed, site: multiple organs + spleen + subcutaneous tissue + tunica vaginalis, lesion: angiosarcoma + fibrosarcoma + mesothelioma + osteosarcoma + sarcoma, NOS + fibroma, dosed 102 weeks, study length 104 weeks
  TD50: 23.3 mg/kg/day
rat, strain Fischer 344, males, in feed, site: multiple organs + tunica vaginalis, lesion: mesothelioma, dosed 102 weeks, study length 104 weeks
  TD50: 97.4 mg/kg/day
rat, strain Fischer 344, males, in feed, site: multiple organs, lesion: angiosarcoma + fibrosarcoma + osteosarcoma + sarcoma, NOS, dosed 102 weeks, study length 104 weeks
  TD50: 93.2 mg/kg/day
rat, strain Fischer 344, males, in feed, site: multiple organs, lesion: fibrosarcoma, dosed 102 weeks, study length 104 weeks
  TD50: 184 mg/kg/day
rat, strain Fischer 344, males, in feed, site: multiple organs, lesion: sarcoma, NOS, dosed 102 weeks, study length 104 weeks
  TD50: 394 mg/kg/day
rat, strain Fischer 344, males, in feed, site: peritoneal cavity, lesion: spindle-cell sarcoma, dosed 72 weeks, study length 93 weeks
  TD50: 190 mg/kg/day
rat, strain Fischer 344, males, in feed, site: skin, lesion: fibroma, dosed 72 weeks, study length 93 weeks
  TD50: 38.7 mg/kg/day
rat, strain Fischer 344, males, in feed, site: spleen, lesion: fibroma, dosed 72 weeks, study length 93 weeks
  TD50: 167 mg/kg/day
rat, strain Fischer 344, males, in feed, site: spleen, lesion: fibroma, dosed 102 weeks, study length 104 weeks
  TD50: 134 mg/kg/day
rat, strain Fischer 344, males, in feed, site: subcutaneous tissue, lesion: fibroma, dosed 102 weeks, study length 104 weeks
  TD50: 33.3 mg/kg/day
rat, strain Fischer 344, males, in feed, site: urinary bladder, lesion: several types, types named in the paper, dosed 72 weeks, study length 93 weeks
  TD50: 474 mg/kg/day

## [O-][Cl+]O
mouse, strain B6C3F1, females, in drinking water, site: liver, lesion: several types, types named in the paper, dosed 85 weeks, study length 85 weeks
  TD50: 3060 mg/kg/day
mouse, strain B6C3F1, males, in drinking water, site: any site (literature study), lesion: several types, types named in the paper, dosed 85 weeks, study length 85 weeks
  TD50: 169 mg/kg/day
mouse, strain B6C3F1, males, in drinking water, site: liver, lesion: hyperplastic nodule, dosed 85 weeks, study length 85 weeks
  TD50: 146 mg/kg/day
mouse, strain B6C3F1, males, in drinking water, site: liver, lesion: several types, types named in the paper, dosed 85 weeks, study length 85 weeks
  TD50: 110 mg/kg/day
mouse, strain B6C3F1, males, in drinking water, site: lung, lesion: adenoma, dosed 85 weeks, study length 85 weeks
  TD50: 346 mg/kg/day
mouse, strain B6C3F1, males, in drinking water, site: lung, lesion: several types, types named in the paper, dosed 85 weeks, study length 85 weeks
  TD50: 237 mg/kg/day
rat, strain Fischer 344, females, in drinking water, site: any site (literature study), lesion: several types, types named in the paper, dosed 85 weeks, study length 85 weeks
  carcinogen call: negative (inactive)
rat, strain Fischer 344, males, in drinking water, site: any site (literature study), lesion: several types, types named in the paper, dosed 85 weeks, study length 85 weeks
  carcinogen call: negative (inactive)
